Experiment [1] has as its system rat sensory neurones (dorsal root ganglia). Briefly: Number of neuronal cell bodies per field (anti MAP-2) in cisplatin-induced toxicity model. Type of experiment: cell-based. The note with it: for number of cell bodies per field, Average / number of cell bodies, % Control without cisplatin: 10 ng/ml + cisplatin 3 μg/ml; for effect on cisplatin-induced loss of cell bodies (in words): 10 ng/ml, cisplatin 3 μg/ml. On the procedure:
(§1) The low molecular weight glycosaminoglycans are referred to in the examples as 2400 D.
(§2) 1. neurone cell bodies stained with an anti MAP 2 antibody (microtubule associated protein, and 2. neurite network density stained with an anti β-Tubulin antibody
Briefly, a female rat (15 days gestation) was killed by cervical dislocation (Rats Wistar; Janvier, Le Genest-St-Isle, France) and the foetuses removed from the uterus. […] The DRG were recovered and dissociated by trypsinisation for 20 min at 37° C. […] The cell suspension was triturated with a 10 ml pipette and centrifuged at 350×g for 10 min at room temperature. The pellet of dissociated cells was then resuspended in defined culture medium.
Viable cells were counted in a Neubauer cytometer using the trypan blue exclusion test (Sigma) and seeded at a density of 30 000 cells/well in 96 well-plates (Nunc).
(§3) Six wells per condition were carried out to assess neuronal survival. After 48 hours and 72 hours of incubation, the neuronal cells were fixed for 5 minutes in an ethanol/acetic acid solution (95%/5%) at −20° C. and rinsed 3 times in PBS.
(§4) Cell bodies of sensory neurones were labelled by monoclonal anti MAP-2 antibody (Sigma M4403, see photograph 1A) and the neurite of sensory neurones were labelled by monoclonal β-Tubulin antibody (Sigma T8660). These antibodies were diluted at 1:400 in incubation solution (PBS with 5% of FCS and 0.1% of saponin, Sigma S-7900). These antibodies specifically label neurone cell bodies and neurites, respectively.
Cell nuclei were stained with a fluorescent marker (Hoechst staining solution, SIGMA H6024, 1 μg/ml in incubation solution during 1 hour).
(§5) For each condition, 2 pictures per well (12 pictures per condition) were taken using In Cell Analyzer 1000 (Amersham Biosciences) controlled by the computer software In Cell Analyzer 1000 3.2. For the MAP-2 labelling, the magnification was ×10, for the β-Tubulin labelling, the magnification was ×20. For each labelling, all the images were taken in the same conditions.
(§6) Analysis of the number of cell bodies labelled with anti MAP-2 antibodies, and total length of neurites labelled with anti β-Tubulin antibodies, were carried out using In Cell Analyzer 1000 3.2.Workstation software. The results were expressed in percentage compared to the vehicle. The comparisons of each group were carried out using the unpaired T test.

Experiment [2] has the same test system. Briefly: Neurite length of sensory neurones (anti β-Tubulin) in cisplatin-induced toxicity model. Type of experiment: cell-based. The note with it: for Mean neurite Length / neurite length, % Control without cisplatin: 10 ng/ml + cisplatin 3 μg/ml; for effect on cisplatin-induced loss of neurites (in words): 10 ng/ml, cisplatin 3 μg/ml. On the procedure: as §1, §2
Rat sensory neurones were prepared according to the method described by Hall et al 1997(3). Briefly, a female rat (15 days gestation) was killed by cervical dislocation (Rats Wistar; Janvier, Le Genest-St-Isle, France) and the foetuses removed from the uterus. Their spinal cords with the dorsal root ganglia (DRG) were removed and placed in ice-cold medium of Leibovitz (L15, Fisher 11415-049) containing Penicillin 50 Ul/ml—Streptomycin 50 μg/ml (PS, 1%) and bovine serum albumin (BSA 1%, Sigma A6003). The DRG were recovered and dissociated by trypsinisation for 20 min at 37° C. (trypsin EDTA 10×, 10%, Fisher 15400054) diluted in PBS without calcium and magnesium (Fisher 2007-03). […] The cell suspension was triturated with a 10 ml pipette and centrifuged at 350×g for 10 min at room temperature. The pellet of dissociated cells was then resuspended in defined culture medium.
Viable cells were counted in a Neubauer cytometer using the trypan blue exclusion test (Sigma) and seeded at a density of 30 000 cells/well in 96 well-plates (Nunc). Wells were pre-coated with poly-L-lysine (10 μg/ml, Sigma P2636) in ultra pure sterile water (Merck Eurolab 60759.01).
Cells were allowed to adhere for 2 h and maintained in a humidified incubator at 37° C. in 5% CO2/95% air atmosphere.
as §3, §4
After 2 hours of incubation, the cells were washed in PBS and incubated with Alexa Fluor 488 goat anti mouse IgG (Molecular Probes A11001) diluted at 1:300 in incubation solution to reveal the MAP-2 and the β-Tubulin antibodies. Cell nuclei were stained with a fluorescent marker (Hoechst staining solution, SIGMA H6024, 1 μg/ml in incubation solution during 1 hour).
as §5, §6

The source of these data is patent US20100196510A1, “COMPOSITION AND TREATMENT” (priority 2007, published 2010).

Consider “NGF: Nerve Growth Factor, a specific growth factor for sensory neurons; reference compound”, for which, in experiment [1] (48 hours), the “number of cell bodies per field, Average” value came to 58.33; the “number of cell bodies, % Control without cisplatin” value is reported as 96%; the “effect on cisplatin-induced loss of cell bodies (in words)” value is on record as “almost completely prevented cisplatin-induced loss of cell bodies”. Also, in experiment [1] (72 hours), the “number of cell bodies per field, Average” value was 54.92 and the “number of cell bodies, % Control without cisplatin” value came out at 102%. The “effect on cisplatin-induced loss of cell bodies (in words)” value in experiment [1] (72 hours section (text prints 48 hours)) was “completely prevented cisplatin-induced loss of cell bodies”. In addition, in experiment [2] (48 hours), the “Mean neurite Length” value came to 6362.44 μm; the “neurite length, % Control without cisplatin” value was 117%; the “effect on cisplatin-induced loss of neurites (in words)” value is listed as “prevented cisplatin-induced loss of neurites”. In experiment [2] (72 hours), the “Mean neurite Length” value was 6000.30 μm; the “neurite length, % Control without cisplatin” value worked out at 113%; the “effect on cisplatin-induced loss of neurites (in words)” value is listed as “prevented cisplatin-induced loss of neurites”.
